The values below come from article PMC3618669 (Journal of molecular recognition : JMR, 2013).

One may read the Kd as a measure of binding affinity in units of concentration. What is called stoichiometry N is the number of molecules, sites or subunits per partner or assembly.

One series deals with T1, CD40L (CD154) (Homo sapiens, UniProt P29965).
T1 sequence (P29965 108-261): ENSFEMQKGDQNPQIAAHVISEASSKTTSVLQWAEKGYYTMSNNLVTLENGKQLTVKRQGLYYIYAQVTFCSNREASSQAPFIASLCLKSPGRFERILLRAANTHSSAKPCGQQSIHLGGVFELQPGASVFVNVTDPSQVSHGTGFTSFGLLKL
The series can be described thus: spectrophotometric metachromatic shift titration. The class given is binding.

Series [1] concerns the target bovine serum albumin (BSA) (Bos taurus, UniProt P02769). The series is described as follows: spectrophotometric metachromatic shift titration. In kind it is binding.
The series “SEC” deals with the molecule itself. The series is described as follows: SEC. For orientation: SEC sorts molecules by how far they enter the pores of the column.

Chain of bovine serum albumin (BSA) (P02769 25-607): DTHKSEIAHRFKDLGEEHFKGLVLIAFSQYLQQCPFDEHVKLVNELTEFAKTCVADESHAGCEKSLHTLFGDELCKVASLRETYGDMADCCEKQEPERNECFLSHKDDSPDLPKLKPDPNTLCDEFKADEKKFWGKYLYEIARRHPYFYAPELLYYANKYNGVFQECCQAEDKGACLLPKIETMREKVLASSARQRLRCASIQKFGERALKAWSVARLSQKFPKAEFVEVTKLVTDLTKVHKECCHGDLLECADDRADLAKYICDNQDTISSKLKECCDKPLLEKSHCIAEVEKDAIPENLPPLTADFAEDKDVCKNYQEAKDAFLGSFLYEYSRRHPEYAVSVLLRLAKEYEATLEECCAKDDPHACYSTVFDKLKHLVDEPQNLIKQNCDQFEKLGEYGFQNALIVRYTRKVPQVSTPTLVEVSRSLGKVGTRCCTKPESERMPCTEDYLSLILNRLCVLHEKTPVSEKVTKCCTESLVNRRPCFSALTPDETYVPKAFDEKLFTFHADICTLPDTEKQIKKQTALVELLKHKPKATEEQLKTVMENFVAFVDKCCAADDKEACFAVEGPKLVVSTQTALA

As for `O=C1OC2(c3ccccc31)c1cc(I)c(O)c(I)c1Oc1c2cc(I)c(O)c1I` [ErB, erythrosine B], the values for the Kd (on CD40L (CD154); in series [1]) were 20 µM and 14 µM, respectively.

B1: recombinant human histidine-tagged extracellular CD40L (ligand, UniProt P29965 108-261, looked up)
chain: T1 sequence (P29965 108-261)
As to B1, the “stoichiometry N” value in “SEC” came out at 3.
